Several values for one entry are separate records, joined by “and”; a condition that tells them apart may be missing. Equal values may be shown once.
Assay: heat capacity at constant pressure per volume; xn = mol fraction of the nth substance listed
Details: 101 kPa, Liquid, DSC, x2 = 0.695

CCCCCCCCCCCCCCCCC [heptadecane] + N#Cc1ccccc1
Details | heat capacity
298.05 K | 1856100 J/K/m3
298.14 K | 1849900 J/K/m3
298.24 K | 1857600 J/K/m3
298.34 K | 1869500 J/K/m3
298.44 K | 1867300 J/K/m3 and 1868100 J/K/m3
298.54 K | 1868700 J/K/m3
298.63 K | 1857900 J/K/m3
298.73 K | 1860800 J/K/m3
298.83 K | 1865800 J/K/m3
298.93 K | 1874400 J/K/m3
299.02 K | 1881300 J/K/m3
299.12 K | 1876400 J/K/m3
299.22 K | 1870300 J/K/m3
299.32 K | 1856400 J/K/m3 and 1858200 J/K/m3
299.42 K | 1872800 J/K/m3
299.52 K | 1876300 J/K/m3
299.61 K | 1873800 J/K/m3
299.71 K | 1875400 J/K/m3
299.81 K | 1870400 J/K/m3
299.91 K | 1865300 J/K/m3
300 K | 1870300 J/K/m3
300.1 K | 1879700 J/K/m3
300.2 K | 1876100 J/K/m3
300.3 K | 1884400 J/K/m3
300.4 K | 1880100 J/K/m3
300.49 K | 1877500 J/K/m3
300.59 K | 1873500 J/K/m3
300.69 K | 1871300 J/K/m3
300.79 K | 1885700 J/K/m3 and 1882900 J/K/m3
300.89 K | 1883300 J/K/m3
300.98 K | 1885200 J/K/m3
301.08 K | 1880800 J/K/m3
301.18 K | 1881200 J/K/m3
301.28 K | 1861100 J/K/m3
301.37 K | 1877300 J/K/m3
301.47 K | 1892900 J/K/m3
301.57 K | 1896800 J/K/m3
301.67 K | 1885900 J/K/m3 and 1887800 J/K/m3
301.77 K | 1883300 J/K/m3
301.87 K | 1884700 J/K/m3
301.96 K | 1888400 J/K/m3
302.06 K | 1899800 J/K/m3
302.16 K | 1898500 J/K/m3
302.26 K | 1888500 J/K/m3
302.35 K | 1894400 J/K/m3
302.45 K | 1890300 J/K/m3
302.55 K | 1891200 J/K/m3
302.65 K | 1899800 J/K/m3 and 1900100 J/K/m3
302.75 K | 1891400 J/K/m3
302.85 K | 1889600 J/K/m3
302.95 K | 1885100 J/K/m3
303.15 K | 1906400 J/K/m3
303.35 K | 1896200 J/K/m3
303.45 K | 1894500 J/K/m3
303.55 K | 1902400 J/K/m3
303.65 K | 1898100 J/K/m3
303.75 K | 1898100 J/K/m3
303.85 K | 1893900 J/K/m3
304.05 K | 1908600 J/K/m3
304.15 K | 1904800 J/K/m3
304.25 K | 1897700 J/K/m3 and 1899000 J/K/m3
304.35 K | 1888500 J/K/m3 and 1889600 J/K/m3
304.45 K | 1900600 J/K/m3
304.55 K | 1901500 J/K/m3
304.65 K | 1903900 J/K/m3
304.75 K | 1894400 J/K/m3
304.85 K | 1881800 J/K/m3
304.95 K | 1915800 J/K/m3
305.05 K | 1912200 J/K/m3
305.15 K | 1901900 J/K/m3
305.25 K | 1924700 J/K/m3
305.35 K | 1907800 J/K/m3
305.45 K | 1925500 J/K/m3
305.55 K | 1943100 J/K/m3
305.65 K | 1963900 J/K/m3
305.75 K | 1942400 J/K/m3
305.85 K | 1924200 J/K/m3
305.95 K | 1983400 J/K/m3
306.05 K | 1910400 J/K/m3
306.15 K | 2011200 J/K/m3
306.25 K | 1898300 J/K/m3
306.35 K | 2003200 J/K/m3
306.45 K | 1935800 J/K/m3
306.55 K | 2021100 J/K/m3
306.65 K | 1945600 J/K/m3
306.75 K | 2006800 J/K/m3
306.85 K | 1978000 J/K/m3
307.05 K | 2038400 J/K/m3
307.15 K | 2126900 J/K/m3
307.25 K | 1846500 J/K/m3
307.35 K | 1804900 J/K/m3
307.45 K | 1791700 J/K/m3
307.55 K | 1787300 J/K/m3
307.65 K | 1779800 J/K/m3
307.75 K | 1775700 J/K/m3
307.85 K | 1767300 J/K/m3
307.95 K | 1764000 J/K/m3
308.05 K | 1758800 J/K/m3
308.15 K | 1759200 J/K/m3
308.23 K | 1750200 J/K/m3
308.35 K | 1756500 J/K/m3
308.45 K | 1756400 J/K/m3
308.55 K | 1753500 J/K/m3
308.65 K | 1748300 J/K/m3
308.75 K | 1746500 J/K/m3
308.85 K | 1745200 J/K/m3
308.95 K | 1748100 J/K/m3
309.05 K | 1747000 J/K/m3
309.14 K | 1747900 J/K/m3
309.25 K | 1743700 J/K/m3
309.35 K | 1742200 J/K/m3
309.45 K | 1738100 J/K/m3
309.55 K | 1735200 J/K/m3
309.65 K | 1738100 J/K/m3
309.75 K | 1736500 J/K/m3
309.85 K | 1737600 J/K/m3
309.95 K | 1740400 J/K/m3
310.05 K | 1736900 J/K/m3
310.15 K | 1731900 J/K/m3
310.25 K | 1735000 J/K/m3
310.35 K | 1732200 J/K/m3
310.45 K | 1727800 J/K/m3
310.55 K | 1733700 J/K/m3
310.65 K | 1733500 J/K/m3
310.75 K | 1728600 J/K/m3
310.85 K | 1733600 J/K/m3
310.95 K | 1730900 J/K/m3
311 K | 1732600 J/K/m3
311.1 K | 1732200 J/K/m3
311.2 K | 1728000 J/K/m3
311.3 K | 1725400 J/K/m3
311.4 K | 1724600 J/K/m3
311.5 K | 1725800 J/K/m3
311.6 K | 1729500 J/K/m3
311.7 K | 1732300 J/K/m3
311.8 K | 1728700 J/K/m3
311.9 K | 1728100 J/K/m3
312 K | 1725500 J/K/m3
312.1 K | 1723400 J/K/m3
312.2 K | 1722200 J/K/m3
312.3 K | 1721300 J/K/m3
312.4 K | 1724000 J/K/m3
312.5 K | 1727600 J/K/m3
312.6 K | 1725700 J/K/m3
312.7 K | 1727300 J/K/m3
312.8 K | 1722600 J/K/m3
312.9 K | 1722100 J/K/m3
313 K | 1720300 J/K/m3
313.1 K | 1719600 J/K/m3
313.2 K | 1723400 J/K/m3
313.3 K | 1724400 J/K/m3
313.4 K | 1725500 J/K/m3
313.5 K | 1720500 J/K/m3
313.6 K | 1717000 J/K/m3
313.7 K | 1718300 J/K/m3
313.8 K | 1719300 J/K/m3
313.9 K | 1720600 J/K/m3
314 K | 1725600 J/K/m3
314.1 K | 1722200 J/K/m3
314.2 K | 1723200 J/K/m3
314.3 K | 1718000 J/K/m3
314.4 K | 1717600 J/K/m3
314.5 K | 1721100 J/K/m3
314.6 K | 1727600 J/K/m3
314.7 K | 1722500 J/K/m3
314.8 K | 1716700 J/K/m3
314.9 K | 1717900 J/K/m3
315 K | 1715800 J/K/m3
315.1 K | 1719700 J/K/m3
315.2 K | 1722400 J/K/m3
315.3 K | 1721800 J/K/m3
315.4 K | 1717200 J/K/m3
315.5 K | 1714900 J/K/m3
315.6 K | 1718500 J/K/m3
315.7 K | 1724700 J/K/m3
315.8 K | 1719600 J/K/m3
315.9 K | 1715500 J/K/m3
316 K | 1715800 J/K/m3
316.1 K | 1715600 J/K/m3
316.2 K | 1721400 J/K/m3
316.3 K | 1718600 J/K/m3
316.4 K | 1718400 J/K/m3
316.5 K | 1717700 J/K/m3
316.6 K | 1724000 J/K/m3
316.7 K | 1724400 J/K/m3
316.8 K | 1719200 J/K/m3
317.16 K | 1722200 J/K/m3
317.2 K | 1722100 J/K/m3
317.31 K | 1721500 J/K/m3
317.4 K | 1721700 J/K/m3
317.5 K | 1722100 J/K/m3
317.6 K | 1721900 J/K/m3
317.7 K | 1721900 J/K/m3
317.8 K | 1721800 J/K/m3
317.9 K | 1721500 J/K/m3
318 K | 1721300 J/K/m3
318.1 K | 1721300 J/K/m3
318.2 K | 1721200 J/K/m3
318.3 K | 1721100 J/K/m3
318.41 K | 1721000 J/K/m3
318.5 K | 1721100 J/K/m3
318.6 K | 1721300 J/K/m3
318.7 K | 1721400 J/K/m3
318.8 K | 1721400 J/K/m3
318.9 K | 1721100 J/K/m3

— the NIST ThermoML archive (doi:10.1016/j.jct.2012.12.001)
